Laboratory results reported in article PMC4450297, “Screening Active Compounds from Garcinia Species Native to China Reveals Novel Compounds Targeting the STAT/JAK Signaling Pathway” (BioMed Research International, 2015).

What was measured:
[1] = test system: STAT3, ERK, AKT phosphorylation in NCI-H1650 cells; experiment: Western blot analysis in NCI-H1650 cells; format: cell-based, human; settings: 8 h
Protocol: (§1) Floating and adherent cells were harvested and treated with ice-cold RIPA lysis buffer (50 mM Tris-HCl, pH 7.5, 0.5% cholic acid, 2 mM EDTA, 10% glycerol, 150 mM NaCl, 0.1% SDS, and 1% Triton X-100) containing complete Mini Protease Inhibitor Cocktail (Roche Applied Science, Indianapolis, IN). Proteins were separated by sodium dodecyl sulfate polyacrylamide gel electrophoresis and transferred to nitrocellulose membranes. Membranes were blocked with 5% BSA in washing buffer (100 mM NaCl, 10 mM Tris-HCl, pH 7.5, and 0.1% Tween-20) for 1 hr at room temperature and incubated with the respective primary antibodies in 5% BSA in washing buffer overnight at 4°C with shaking. The membranes were probed with the following antibodies: p44/42 (Cat#9107, CST), phospho-p44/42 (Cat#4370, CST), AKT (Cat#9272, CST), phospho-AKT (ser473) (Cat#9271, CST), STAT3 (Cat#9139, CST), and phospho-STAT3 (Tyr705) (Cat#9131, CST). Membranes were then washed and incubated with anti-mouse or anti-rabbit fluorescent secondary antibodies (LICOR, US) diluted in washing buffer for 1 h at room temperature with shaking. Protein bands were detected using an Odyssey Imaging system (LICOR, US).

[2] = test system: phosphorylation of STAT3 upon IL-6 stimulation in HepG2 cells; experiment: Western blot, IL-6-stimulated STAT3 activation; format: cell-based, human; settings: pretreated 2 h, IL-6 10 ng/mL 15 min
Protocol: as §1

Row | Compound | Phosphorylation of ERK and AKT [1] | STAT3 expression and its phosphorylation (Tyr705) [1] | phosphorylation of STAT3 upon IL-6 stimulation [2]
1 | CC(C)=CCC[C@@]1(C)C=Cc2c(O)c3c(c(C/C=C(\C)CO)c2O1)O[C@]12C(=C[C@@H]4C[C@H]1C(C)(C)O[C@@]2(C/C=C(/C)C(=O)O)C4=O)C3=O [GB40, 35-hydroxyepigambogic acid] | inhibited | inhibited STAT3 expression and its phosphorylation in a dose-dependent manner | efficiently suppressed
2 | CC(C)=CCC[C@@]1(C)C=Cc2c(O)c3c(c(CCC(C)(C)O)c2O1)O[C@]12C(=C[C@@H]4C[C@H]1C(C)(C)O[C@@]2(C/C=C(/C)C(=O)O)C4=O)C3=O [GB39, 33-hydroxyepigambogic acid] | inhibited | inhibited STAT3 expression and its phosphorylation in a dose-dependent manner | efficiently suppressed
